From US9783528B2, “Inhibitors of the enzyme UDP-glucose: N-acyl-sphingosine glucosyltransferase” (Concert Pharmaceuticals, Inc., priority 2013, dated 2017)
Read-outs that look alike come from different tables or passages of the source.

Experiments:
[1] = target: T1, CYP2D6 (Homo sapiens, UniProt P10635); assay: Metabolic stability in Human CYP2D6 Supersomes; assay type: in vitro ADME; settings: human, recombinant human CYP2D6 Supersomes
T1 construct: purchased Corning Gentest
Experimental: (§1) Evaluation of Metabolic Stability in Human CYP2D6 Supersomes™
(§2) Materials: CYP2D6 Supersomes™ were obtained from Corning Gentest. β-nicotinamide adenine dinucleotide phosphate, reduced form (NADPH), magnesium chloride (MgCl2), and dimethyl sulfoxide (DMSO) were purchased from Sigma-Aldrich. D-Eliglustat compounds were supplied by Concert Pharmaceuticals.
(§3) Determination of Metabolic Stability: 10 mM stock solutions of test compounds were prepared in DMSO. […] The CYP2D6 supersomes were diluted to 5 pmol/mL in 0.1 M potassium phosphate buffer, pH 7.4, containing 3 mM MgCl2. The diluted supersomes were added to wells of a 96-well deep-well polypropylene plate in triplicate. […] Reactions were initiated by addition of pre-warmed NADPH solution. The final reaction volume was 0.5 mL and contained 5 pmol/mL CYP2D6 supersomes, 0.25 μM test compound, and 2 mM NADPH in 0.1 M potassium phosphate buffer, pH 7.4, and 3 mM MgCl2. The reaction mixtures were incubated at 37° C. and 50 μL aliquots were removed at 0, 5, 10, 20, and 30 minutes and added to shallow-well 96-well plates which contained 50 μL of ice-cold ACN with internal standard to stop the reactions. The plates were stored at 4° C. for 20 minutes after which 100 μL of water was added to the wells of the plate before centrifugation to pellet precipitated proteins. Supernatants were transferred to another 96-well plate and analyzed for amounts of parent remaining by LC-MS/MS using an Applied Bio-systems mass spectrometer.
(§4) Data analysis: The in vitro t1/2s for test compounds were calculated from the slopes of the linear regression of % parent remaining (ln) vs incubation time relationship.
(§5) k=−[slope of linear regression of % parent remaining (ln) vs incubation time]
(§6) Data analysis was performed using Microsoft Excel Software.

[2] = target: T2, Human CYP2D6 Supersomes (Homo sapiens, UniProt P10635); assay: Metabolic stability in Human CYP2D6 Supersomes; assay type: in vitro ADME; settings: Table 4a; for t1/2 (minutes) Experiment 2 / t1/2 (minutes) Experiment 1: 5 pmol/mL CYP2D6 supersomes, 0.25 μM test compound, 2 mM NADPH, 37° C.; for t1/2 (minutes) Experiment 1: parent remaining by LC-MS/MS; for t1/2 (minutes) Ave ± SD: average of Experiments 1 and 2
T2 construct: purchased Corning Gentest
T2 sequence (P10635 whole entry): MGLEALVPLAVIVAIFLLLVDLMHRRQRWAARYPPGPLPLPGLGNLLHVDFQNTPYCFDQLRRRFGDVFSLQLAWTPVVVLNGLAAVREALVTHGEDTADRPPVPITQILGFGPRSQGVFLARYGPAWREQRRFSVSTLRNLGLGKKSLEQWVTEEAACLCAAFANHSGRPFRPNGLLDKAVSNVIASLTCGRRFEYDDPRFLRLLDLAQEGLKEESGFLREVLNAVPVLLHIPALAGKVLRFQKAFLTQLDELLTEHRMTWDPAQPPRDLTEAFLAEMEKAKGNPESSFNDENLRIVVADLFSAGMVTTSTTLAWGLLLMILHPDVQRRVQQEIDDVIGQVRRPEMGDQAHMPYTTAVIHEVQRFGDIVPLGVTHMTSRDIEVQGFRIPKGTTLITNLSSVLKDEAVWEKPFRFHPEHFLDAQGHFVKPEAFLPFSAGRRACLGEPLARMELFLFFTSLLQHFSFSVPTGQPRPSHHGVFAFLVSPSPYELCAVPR
Experimental: as §1, §2, §3, §4, §5, §6

T1 sequence (P10635 whole entry): as above

| half-life at 0.25 μM ([1]; pH 7.4, Table 4a, 5 pmol/mL CYP2D6 supersomes, 0.25 μM test compound, 2 mM NADPH, 37° C., parent remaining by LC-MS/MS, read-out: t1/2 (minutes) Experiment 1) | half-life at 0.25 μM ([1]; pH 7.4, Table 4a, 5 pmol/mL CYP2D6 supersomes, 0.25 μM test compound, 2 mM NADPH, 37° C., read-out: t1/2 (minutes) Experiment 2) | half-life at 0.25 μM ([1]; pH 7.4, Table 4a, average of Experiments 1 and 2, read-out: t1/2 (minutes) Ave ± SD) | half-life at 0.25 μM ([1]; pH 7.4, Table 4b, Human CYP2D6 Supersomes, read-out: t1/2 (minutes) Experiment 1) | half-life at 0.25 μM ([1]; pH 7.4, Table 4b, Human CYP2D6 Supersomes, read-out: t1/2 (minutes) Experiment 2) | half-life at 0.25 μM ([1]; pH 7.4, Table 4b, average of Experiments 1 and 2, read-out: t1/2 (minutes) Ave ± SD) | % Δ of t1/2 = [(deuterated species) − (nondeuterated species)](100)/(nondeuterated species) ([2]; versus Eliglustat (D0)) | Molecule | t1/2 (minutes) Experiment 2 [2] | t1/2 (minutes) Experiment 1 [2] | t1/2 (minutes) Ave ± SD [2] |
| --- | --- | --- | --- | --- | --- | --- | --- | --- | --- | --- |
| 6.6 min | 5.1 min | 6.7 ± 1.5 min | 9.7 min | 6.3 min | 8 ± 2.4 min | – | CCCCCCCC(=O)N[C@H](CN1CCCC1)[C@H](O)c1ccc2c(c1)OCCO2 [Eliglustat (D0), N-[2-(2,3-dihydro-1,4-benzodioxin-6-yl)-2(R)-hydroxy-1(R)-(pyrrolidin-1-ylmethyl)ethyl]octanamide, reference compound] | – | – | – |
| – | – | – | – | – | – | – | N-((1R,2R)-1-(2,3-Dihydrobenzo[b][1,4]dioxin-6-yl-2,2,3,3-d4)-1-hydroxy-3-(pyrrolidin-1-yl-d8)propan-2-yl)octanamide hemi-L-tartaric acid salt [Compound 118] | 5.9 min | 5.6 min | 5.8 ± 0.2 min |
| – | – | – | – | – | – | 119% | N-((1R,2R)-1-(2,3-dihydrobenzo[b][1,4]dioxin-6-yl)-1-hydroxy-3-(pyrrolidin-2-yl-3,3-d2)octan-d15-amide hemi-L-tartaric acid salt [Compound 171] | 17.1 min | 12.3 min | 14.7 ± 3.4 min |
